Measured values from PubChem BioAssay (NCI).
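Step 1: Grow cells in 96-well plates. Step 2: Expose to compound for 48 hours at 5 concentrations. Step 3: Interpolate endpoints linearly; if unreached, use highest concentration. At the GI50, growth is halved. TGI is the concentration that stops growth completely.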

How the values were obtained:
Assay in all cases: NCI-60 cell line screen, 48 h
COLO 205 colon = system: COLO 205 colon
HCC-2998 colon = system: HCC-2998 colon
HCT-116 colon = system: HCT-116 colon
HL-60(TB) leukemia = system: HL-60(TB) leukemia
M14 melanoma = system: M14 melanoma
MCF7 breast = system: MCF7 breast
NCI/ADR-RES ovarian = system: NCI/ADR-RES ovarian
RPMI-8226 leukemia = system: RPMI-8226 leukemia
SK-MEL-2 melanoma = system: SK-MEL-2 melanoma
SW-620 colon = system: SW-620 colon

SMILES	GI50 (COLO 205 colon) [µM]	TGI (COLO 205 colon) [µM]	GI50 (HCC-2998 colon) [µM]	TGI (HCC-2998 colon) [µM]	GI50 (HCT-116 colon) [µM]	TGI (HCT-116 colon) [µM]	GI50 (HL-60(TB) leukemia) [µM]	TGI (HL-60(TB) leukemia) [µM]	GI50 (M14 melanoma) [µM]	TGI (M14 melanoma) [µM]	GI50 (MCF7 breast) [µM]	TGI (MCF7 breast) [µM]	GI50 (NCI/ADR-RES ovarian) [µM]	TGI (NCI/ADR-RES ovarian) [µM]	GI50 (RPMI-8226 leukemia) [µM]	TGI (RPMI-8226 leukemia) [µM]	GI50 (SK-MEL-2 melanoma) [µM]	TGI (SK-MEL-2 melanoma) [µM]	GI50 (SW-620 colon) [µM]	TGI (SW-620 colon) [µM]
O=C(Nc1ccc(I)cc1)c1cccc([N+](=O)[O-])c1O	3.66	34.6	4.19	44.3	3.11	13.8	2.96	9.32	3.54	49.5	2.76	> 100	2.94	> 100	1.66	6.73	2.6	8.79	4.44	> 100
Cc1cc(C(O)(c2ccc(Nc3ccccc3)cc2)c2ccc(Nc3ccc(S(=O)(=O)O)cc3)cc2)ccc1N (stereo not given)	0.782	2.8	1.23	2.58	1.21	2.65	1.66	6.12	1.2	2.98	0.478	2.67	1.83	4.58	0.571	2.99	1.55	4.68	0.818	3.27
NS(=O)(=O)c1ccc(N=C2C(=O)Nc3ccccc32)cc1	–	98.4	–	> 100	–	> 100	–	> 100	–	> 100	–	> 100	–	> 100	–	> 100	–	> 100	–	> 100
C/C(=N\O)c1cccc(Nc2cc(-c3ccccc3)nc3c(O)cccc23)c1	10.6	26.7	3.68	14.2	2.41	15.9	4.71	> 66.3	3.47	18.8	0.354	46.5	1.37	> 23.5	2.46	7.98	8.34	27.2	0.751	> 42.9
O=C(Cc1ccc(Nc2ccnc(C(F)(F)F)c2)cc1)N/N=C/c1ccccc1O	4.33	22.8	1.16	10.8	1.92	> 39.6	1.9	5.44	1.82	19.5	2.94	23.7	2.83	33	0.824	16.2	3.12	24.5	3.02	17
CCN1C(=O)N(CC)C2C1NC(=S)N2/N=C/C=C/c1ccccc1OC (stereo not given)	0.0315	0.7	0.0343	16.2	< 0.0182	> 55.9	0.0264	0.0722	< 0.0184	> 100	0.0406	> 100	0.0311	> 100	0.0431	30.9	1.1	> 100	0.0475	> 100
Oc1ccc(Cc2ccc(O)c(C3CC(c4ccc(Cl)cc4)=NN3)c2)cc1C1CC(c2ccc(Cl)cc2)=NN1 (stereo not given)	4.17	23.9	3.71	> 30.8	1.72	5.59	2.73	> 100	3.93	> 39.3	3.04	> 100	2.54	> 34.5	3.89	> 100	2.96	10.5	3.23	16
